From patent publication US7541381B2, “Non-covalent inhibitors of AmpC β-lactamase” (Northwestern University, priority 2002, dated 2009) come the findings set out here.

Values after ≈ are worked out from the molar mass of the structure shown. “Also recorded” adds a separate entry of the source. Where only a bound is given, the exact number is not on record here.

In one test the target is T1, AmpC β-lactamase (Escherichia coli, UniProt P00811).
T1 construct: made in house
The test is described as follows: biochemical. Format: biochemical. To be noted: for Ki: 50 mM TRIS pH 7.0, nitrocefin substrate, progress curve analysis; for change of AmpC inhibition/binding relative to compound 1: analogs of 1. As to the method:
Enzymology. AmpC from Escherichia coli was expressed and purified to homogeneity as described in the literature. […] All were used without further purification. Kinetic measurements with AmpC were performed in 50 mM TRIS buffer, pH 7.0, using nitrocefin as a substrate. […] Reactions were initiated by the addition of 0.875 nM enzyme and monitored in methacrylate cuvettes. […] Ki values for the compounds were obtained by comparison of progress curves in the presence and absence of inhibitor.

Test [1] concerns JM109 E. coli expressing AmpC. The test is described as follows: Antimicrobial susceptibility testing (MIC), AmpC-expressing strain. It counts as cell-based. On the procedure:
(§1) Antimicrobial experiments. Susceptibility testing was performed and interpreted following the guidelines of the National Committee for Clinical Laboratory Standards. To test the inhibitory activity of 1, the compound was dissolved in 50% DMSO and dilutions were performed using Luria Broth growth medium.

Test [2] has as its system JM109 that does not express AmpC. The test is described as follows: Antimicrobial susceptibility testing (MIC), strain without AmpC. It counts as cell-based, E. coli. To be noted: Escherichia coli, read-out: MIC of ampicillin in JM109 that does not express AmpC. On the procedure: as §1
In another test the target is T2, α-chymotrypsin (Bos taurus, UniProt P00766).
T2 construct: purchased Sigma (St. Louis, Mo.); host or cells: bovine pancreas
Put plainly: biochemical. As to conditions: 200 μM substrate, 50 mM TRIS pH 7.0, 25° C. Further details: species or system bovine. As to the method: (§2) The substrates for α-chymotrypsin (succinyl-ala-ala-pro-phe-p-nitroanilide) and β-trypsin (N-benzoyl-L-arginine ethyl ester, BAEE) were also purchased from Sigma. The elastase substrate used (elastase substrate 1, MeOSuc-Ala-Ala-Pro-Val-pNA) was purchased from Calbiochem (San Diego, Calif.). Substrates were diluted from 10 mM DMSO stock solutions, and all reactions were performed in 50 mM TRIS buffer, pH 7.0, 25° C. For α-chymotrypsin, 200 μM of substrate was used; the reactions were initiated by addition of 10 μL of a 0.1 mg/ml enzyme stock solution and monitored at 410 nm. For β-trypsin, 200 μM of BAEE was used, the reactions were initiated by the addition of 5 μL of a 0.2 mg/ml enzyme stock solution, and monitored at 260 nm. For elastase, 640 μM of elastase substrate was used, the reactions were initiated by the addition of 30 μL of a 0.2 mg/mL enzyme stock solution, and monitored at 385 nm. Initial rate fits to the absorbance data for the first 150 seconds of each reaction were used to determine reaction velocities.

For a further test, the target named is T3, β-trypsin (Bos taurus, UniProt P00760).
T3 construct: β-trypsin (bovine pancreatic); purchased Sigma (St. Louis, Mo.); host or cells: bovine pancreas
T3 sequence (P00760 24-246): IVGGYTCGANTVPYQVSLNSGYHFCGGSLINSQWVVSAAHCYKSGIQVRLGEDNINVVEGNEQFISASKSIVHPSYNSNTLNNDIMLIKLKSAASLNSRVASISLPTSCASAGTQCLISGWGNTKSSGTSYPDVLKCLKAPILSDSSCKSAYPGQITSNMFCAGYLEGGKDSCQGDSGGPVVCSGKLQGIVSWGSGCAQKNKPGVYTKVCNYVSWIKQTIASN
The test is described as follows: biochemical. It counts as biochemical, bovine. As to the method: as §2

The target of a further test is T4, elastase (Sus scrofa, UniProt P00772).
T4 construct: purchased Sigma (St. Louis, Mo.); host or cells: porcine pancreas
T4 sequence (P00772 27-266): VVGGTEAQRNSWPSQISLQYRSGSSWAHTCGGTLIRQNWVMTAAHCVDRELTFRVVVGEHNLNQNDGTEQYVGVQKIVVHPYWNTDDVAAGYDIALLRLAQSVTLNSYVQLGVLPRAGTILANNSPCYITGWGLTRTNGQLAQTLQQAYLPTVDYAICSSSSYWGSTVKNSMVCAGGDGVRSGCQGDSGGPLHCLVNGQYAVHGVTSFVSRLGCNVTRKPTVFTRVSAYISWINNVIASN
The test is described as follows: elastase selectivity counter-screen. Format: biochemical, porcine. As to the method: as §2

In a further test the test system is related serine amidases. The test is described as follows: Counter-screens against related serine amidases. Format: biochemical. On the procedure: as §2
In general terms: A counterscreen serves to expose hits that act by an unwanted route or on another target.

T1 sequence (P00811 20-377): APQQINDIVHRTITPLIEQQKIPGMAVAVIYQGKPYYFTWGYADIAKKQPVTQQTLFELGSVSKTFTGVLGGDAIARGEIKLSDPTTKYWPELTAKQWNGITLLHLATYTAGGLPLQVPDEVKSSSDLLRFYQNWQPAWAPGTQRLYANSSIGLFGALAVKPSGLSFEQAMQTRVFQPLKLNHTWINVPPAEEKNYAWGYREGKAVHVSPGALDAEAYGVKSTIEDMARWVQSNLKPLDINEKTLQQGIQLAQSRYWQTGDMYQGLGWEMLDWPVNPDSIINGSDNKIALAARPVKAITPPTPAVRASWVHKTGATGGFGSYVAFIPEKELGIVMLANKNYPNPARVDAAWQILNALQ

Take `O=C(O)CCSc1nc2ccccc2s1` [Compound 3, 3-(2-benzothiazolylthio)propionic acid]: on AmpC β-lactamase, the Ki (commonly the equilibrium dissociation constant of an inhibitor or competing ligand from its target) came to 646 µM.

As to `COC(=O)c1sccc1S(=O)(=O)Nc1ccc(Cl)cc1` [Compound 5, methyl 3-[(4-chloroanilino)sulfonyl]thiophene-2-carboxylate], at AmpC β-lactamase, the Ki was greater than 100 µM and the “change of AmpC inhibition/binding relative to compound 1” value is on record as “compromised inhibition; also recorded: binding was somewhat problematic”.

Consider `O=S(=O)(O)CCCSc1nc2ccccc2s1` [Compound 2, 3-(2-benzothiazolylthio)-1-propanesulfonic acid], for which, on AmpC β-lactamase, the Ki was 318 µM.

As to `CC1(C)S[C@@H]2[C@H](NC(=O)[C@H](N)c3ccccc3)C(=O)N2[C@H]1C(=O)O` [Ampicillin, ampicillin, reference compound], the MIC in test [1] (Escherichia coli, read-out: MIC JM109/AmpC) turned out to be 512 µg/mL (≈ 1470 µM); in test [2], 4 µg/mL.

Consider `Cc1oc(C)c(S(=O)(=O)Nc2cccs2)c1C(=O)O` [Compound 8, 2,5-dimethyl-4-(2-thienylaminosulfonyl)furan-3-carboxylic acid], for which the Ki on AmpC β-lactamase worked out at 64 µM.

In the case of `COc1ccc(NS(=O)(=O)c2ccccc2[N+](=O)[O-])cc1` [Compound 9, N-(4-methoxyphenyl)-2-nitro-benzenesulfonamide], on AmpC β-lactamase, the Ki is greater than 100 µM and the “change of AmpC inhibition/binding relative to compound 1” value is on record as “compromised inhibition; also recorded: binding was somewhat problematic”.

On to `O=C(O)c1sccc1S(=O)(=O)Nc1ccc(Cl)cc1` [Compound 1, 3-[(4-chloroanilino)sulfonyl]thiophene-2-carboxylic acid], for which the “mode of inhibition of AmpC” value on AmpC β-lactamase is “competitive, non-covalent inhibitor; also recorded: competitive, reversible inhibitor”. The same compound displayed a Ki at AmpC β-lactamase of 23 µM. Further, the IC50 (commonly the concentration needed to halve the response being measured) on α-chymotrypsin was greater than 1200 µM; at β-trypsin (200 μM BAEE, 50 mM TRIS pH 7.0, 25° C.), greater than 4000 µM; on elastase (640 μM elastase substrate, 50 mM TRIS pH 7.0, 25° C.) it was greater than 4000 µM. Moreover, the inhibition of trypsin result against β-trypsin (at concentrations up to 4 mM) was “no inhibition”. Further, the inhibition of elastase result on elastase (at concentrations up to 4 mM) was “no inhibition”. The “antibiotic activity of compound alone” value in test [1] (at the concentration used in the ampicillin combination) is recorded as “no measurable antibiotic activity”. Besides, the “increase in efficacy of ampicillin” value in test [1] (bacterial cell culture, resistant strain) is on record as “four-fold”. Moreover, in test [1] (resistant strain overexpressing β-lactamase), the “minimum inhibitory concentration (MIC) of ampicillin in the presence of the compound” value is 128 µg/mL. Moreover, the “inhibition of related serine amidases in counter-screens” value in the test with related serine amidases is listed as “did not inhibit”.

For the compound `O=C(Cc1cccs1)N[C@@H]1C(=O)N2C(C(=O)O)=C(/C=C/c3ccc([N+](=O)[O-])cc3[N+](=O)[O-])CS[C@H]12` [nitrocefin, reference compound], the Km (in general, the concentration of substrate that gives half-maximal velocity) at AmpC β-lactamase (read-out: Km of nitrocefin for AmpC, 50 mM TRIS buffer, pH 7.0) stood at 127 µM.

In the case of “3-([4-[3-chloro-5-(trifluoromethyl)pyridin-2-yl]piperazino]sulfonyl)thiophene-2-carboxylate [Compound 6]”, on AmpC β-lactamase, the inhibition constant (Ki) is greater than 100 µM and the “change of AmpC inhibition/binding relative to compound 1” value is listed as “hindered binding”.

As for `Cc1ccc(S(=O)(=O)Nc2csc(C)c2C(=O)O)cc1` [Compound 4, 2-methyl-4-[[(4-methylphenyl)sulfonyl]amino]thiophene-3-carboxylic acid], at AmpC β-lactamase, affinity was put at a Ki of 60 µM and the “change of AmpC inhibition/binding relative to compound 1” value is reported as “diminished inhibition three-fold; also recorded: reduced binding by three-fold”.

`O=C(O)c1sccc1S(=O)(=O)Nc1ccccc1N1CCCCC1` [Compound 7, 3-[(2-piperidinoanilino)sulfonyl]thiophene-2-carboxylic acid]: on AmpC β-lactamase, affinity was put at a Ki of 14 µM and the “change of AmpC inhibition/binding relative to compound 1” value is given as “slight improvement in affinity”.
